Laboratory results published in patent US9567318B2, “Substituted pyrimidine compounds and uses thereof” (Memorial Sloan-Kettering Cancer Center, priority 2009, dated 2017).

Experiments:
Type in all cases: cell-based, human
[1] = test system: MDA-MB-468, SKBr3, LNCaP, MOLM-13, Kasumi-1, OCI-Ly7 and HuH7 cells; assay: Growth inhibition in a panel of cancer cells; settings: growth over 72 h
Protocol: Tested were MDA-MB-468 triple-negative breast cancer cells, SKBr3 HER2+breast cancer cells, LNCaP mAR+prostate cancer cells, MOLM-13 and Kasumi-1 acute myeloid leukemia cells, OCI-Ly7 diffuse large B-cell lymphoma cells and HuH7 hepatocellular carcinoma cells. […] In cancer cells, half growth inhibitory concentrations ([…]) recorded for YK5 were in high agreement with its potency to degrade Hsp90 onco-clients.
Growth Inhibition Assay. Antiproliferative effects of inhibitors were evaluated using the dye Alamar blue. This reagent offers a rapid objective measure of cell viability in cell culture, and it uses the indicator dye resazurin to measure the metabolic capacity of cells, an indicator of cell viability. Briefly, cells were plated on Costar 96-well plates. For attached cells (such as SKBr3, MDA-MB-468, LNCaP, MRCS), 8,000 cells/well were used. For suspension cells (such as MOLM-13, Kasumi-1, OCI-Ly7, PBL), 20,000 cells/well were plated. Cells were allowed to incubate for 24 h at 37° C. before drug treatment. Drugs were added in triplicates at the indicated concentrations, and the plate was incubated for 72 h. Alamar Blue (440 μM) was added, and the plate read 6 h later using the Analyst GT (Fluorescence intensity mode, excitation 530 nm, emission 580 nm, with 560=dichroic mirror). Results were analyzed using the Softmax Pro software. The percentage cell growth inhibition was calculated by comparing fluorescence readings obtained from treated versus control cells, accounting for initial cell population (time zero).

Kasumi-1 cells = assay: Apoptosis, acridine orange/ethidium bromide, Kasumi-1; settings: 10 μM, 24 h
Protocol: FIG. 13. YK5 has a higher apoptotic effect than Hsp90 inhibitors in select tumors. (a-d) Cells were treated with the indicated concentrations of inhibitors for the times presented. (a,b) Apoptotic cells were quantified by dual acridine orange/ethidium bromide staining as described in Methods. (c,d) Molecular markers of apoptosis (PARP cleavage) were analyzed in cells treated for 24 h with indicated concentrations of inhibitors (c) or for the indicated times with the indicated concentration of inhibitors (d) by western blotting. (e) MDAMB-468 cells were treated with vehicle, TNFα (20 ng/ml), YK5 (1 μM), pretreated with YK5 for 2 h before TNFα or co-treated, and cells were lysed for western blot analysis (left), or cell death was quantified by analyzing the hypodiploid population upon propidium iodine staining (right). […]
To determine whether cell death by YK5 was attributable to apoptosis, cells were treated with YK5 and effects on morphology, as well as on several effectors and mediators of apoptosis were analyzed (FIG. 13). To quantify the number of cells undergoing apoptosis, cells were stained with acridine orange/ethidium bromide (AO/EB) and analyzed under a fluorescence microscope for the percentage of viable, apoptotic (early and late) and necrotic cells. […]
Apoptosis-Acridine Orange/Ethidium Bromide. […] Percentage of apoptotic cells was determined from 200-300 cells counted in each group.

[2] = test system: HER2, Raf-1, Akt, Hsp70 in SKBr3 cells; assay: Western blotting of Hsp90 onco-client proteins and Hsp70 in SKBr3 cells; settings: SKBr3 cells, 24 h
Protocol: FIG. 3. Testing strategy for the discovery of YK5. a, b) SKBr3 cells were treated for 24 h with the indicated concentrations of inhibitors and cells were lysed for western blot (WB) analysis. β-actin was used as loading control. The data are consistent with those obtained from multiple repeat experiments (n≧3). c) The ability of the indicated inhibitors to compete with GM-Cy3B for Hsp90 binding in SKBr3 cell extracts was examined by fluorescence polarization. Values recorded in wells with added inhibitor were normalized to values read in control wells and plotted against the concentration of tested inhibitor. Drugs were assayed in triplicate. All compounds were used as DMSO stocks. Points, mean; bars, s.d. d) Growth inhibition: SKBr3 cells were incubated in triplicate with increasing concentrations of compound and growth over 72 h was assessed. Y-axis values below 0% represent cell death of the starting population. HER2 degradation was analyzed as in panel a), and gels were quantified by densitometry. Recorded values were normalized to control (vehicle only treated cells) and data graphed against YK5 concentration. Error bars represent the s.d. of the mean (n=3).
FIG. 8. […] Points, mean; bars, s.d. Yaxis values below 0% represent cell death of the starting population. c) Streptavidin beads (50 μl) were incubated with the indicated concentrations of YK55, YK56 or D-biotin to immobilize the corresponding compounds on beads. Beads (50 μl) were probed with SKBr3 cell extracts (500 μg), and the precipitated Hsp70 analyzed by western blot and quantified by […]. Results from three independent experiments were graphed to determine the relative binding affinity of YKs. Points, mean; bars, s.d. d) Structure of representative YKs. YK55 and YK56 are the biotinylated derivatives of YK54 and YK57, respectively.
FIG. 9. […] Cells were treated for 24 h with the indicated concentrations of YK149 and YK5. Cells were lysed and proteins analyzed by western blotting. b) Examples of the compounds of the present subject matter inhibit the activity of the oncogenic STAT3 in the triple-negative breast cancer cells MDA-MB-468. Cells were treated for the indicated times with compounds or vehicle and proteins analyzed by western blot. (c) Examples of the compounds of the present subject matter dose-dependently induce apoptosis in the acute myeloid leukemia cells MOLM13. Cells were treated for 24 h with the indicated concentration of compounds and the increase in caspase3,7 activity was measured and compared to only vehicle (DMSO) treated cells. Caspase-3,7 activity was a measure of compound potency in cleaving the caspase substrate Z-DEVD-R110 and releasing rhodamine. The percentage increase in apoptotic cells was calculated by comparing the fluorescence readings obtained from compounds with those obtained from vehicle (DMSO)-treated cells.
Western Blotting. Cells were grown to 60-70% confluence and treated with inhibitor or DMSO vehicle for the indicated times. Protein lysates were prepared in 50 mM Tris pH 7.4, 150 mM NaCl and 1% NP-40 lysis buffer. Protein concentrations were measured using the BCA kit (Pierce) according to the manufacturer's instructions. […]

## C#CCCCn1c(Cc2cc(OC)c(OC)c(OC)c2Cl)nc2c(N)nc(F)nc21 [PU24FCl, reference compound]
[1]
  growth of all tested cancer cells: inhibited the growth of all tested cancer cells
Kasumi-1 cells
  cells undergoing apoptosis: 9%
[2]
  feed-back induction of Hsp70 (heat shock response): potently activated a heat shock response
